In patent US20070129359A1, “Tetrahydronaphthalene derivatives, processes for their preparation and their use as antiinflammatory agents” (priority 2005, published 2007):

Key:
[1] = molecular target: T1, glucocorticoid receptor (GR) (Homo sapiens, UniProt P04150); test: binding to the glucocorticoid receptor (recombinant receptor, Sf9 cytosol); conditions: cytosol of Sf9 cells, reference [3H]-dexamethasone
T1 construct: made in house; host or cells: Sf9 cells infected with recombinant baculovirus (cytosol preparation)
T1 sequence (P04150 1-777): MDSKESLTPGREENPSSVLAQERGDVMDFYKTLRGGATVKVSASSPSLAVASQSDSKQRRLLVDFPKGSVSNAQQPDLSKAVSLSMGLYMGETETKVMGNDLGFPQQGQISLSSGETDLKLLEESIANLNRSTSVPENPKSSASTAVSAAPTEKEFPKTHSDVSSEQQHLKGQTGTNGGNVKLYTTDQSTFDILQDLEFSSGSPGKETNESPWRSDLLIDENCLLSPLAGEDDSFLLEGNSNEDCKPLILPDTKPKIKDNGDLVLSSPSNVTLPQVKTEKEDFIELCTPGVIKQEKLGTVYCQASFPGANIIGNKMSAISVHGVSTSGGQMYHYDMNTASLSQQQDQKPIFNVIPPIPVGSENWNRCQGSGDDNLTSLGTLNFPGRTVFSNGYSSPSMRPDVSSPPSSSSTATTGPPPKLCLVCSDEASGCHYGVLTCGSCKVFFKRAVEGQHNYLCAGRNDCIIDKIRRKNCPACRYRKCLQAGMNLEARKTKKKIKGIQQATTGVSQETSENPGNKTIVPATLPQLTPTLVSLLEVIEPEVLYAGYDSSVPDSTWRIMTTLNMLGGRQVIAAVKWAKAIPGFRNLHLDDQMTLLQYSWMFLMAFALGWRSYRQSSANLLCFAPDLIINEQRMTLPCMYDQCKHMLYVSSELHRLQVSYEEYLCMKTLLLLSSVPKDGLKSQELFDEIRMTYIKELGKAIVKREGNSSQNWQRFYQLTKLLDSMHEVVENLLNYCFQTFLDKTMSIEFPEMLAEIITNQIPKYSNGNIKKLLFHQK
Source text: (§1) The binding of the substances to the glucocorticoid receptor (GR) and further steroid hormone receptors (mineral corticoid receptor (MR), progesterone receptor (PR) and androgen receptor (AR)) is examined with the aid of recombinantly prepared receptors. Cytosol preparations of Sf9 cells which had been infected with recombinant baculoviruses which code for the GR are employed for the binding studies. Compared with the reference substance [^3H]-dexamethasone, the substances show a high affinity for the GR.

[2] = molecular target: T2, progesterone receptor (PR) (Homo sapiens, UniProt P06401); test: binding to the progesterone receptor (recombinantly prepared receptor)
T2 construct: made in house
T2 sequence (P06401 1-933): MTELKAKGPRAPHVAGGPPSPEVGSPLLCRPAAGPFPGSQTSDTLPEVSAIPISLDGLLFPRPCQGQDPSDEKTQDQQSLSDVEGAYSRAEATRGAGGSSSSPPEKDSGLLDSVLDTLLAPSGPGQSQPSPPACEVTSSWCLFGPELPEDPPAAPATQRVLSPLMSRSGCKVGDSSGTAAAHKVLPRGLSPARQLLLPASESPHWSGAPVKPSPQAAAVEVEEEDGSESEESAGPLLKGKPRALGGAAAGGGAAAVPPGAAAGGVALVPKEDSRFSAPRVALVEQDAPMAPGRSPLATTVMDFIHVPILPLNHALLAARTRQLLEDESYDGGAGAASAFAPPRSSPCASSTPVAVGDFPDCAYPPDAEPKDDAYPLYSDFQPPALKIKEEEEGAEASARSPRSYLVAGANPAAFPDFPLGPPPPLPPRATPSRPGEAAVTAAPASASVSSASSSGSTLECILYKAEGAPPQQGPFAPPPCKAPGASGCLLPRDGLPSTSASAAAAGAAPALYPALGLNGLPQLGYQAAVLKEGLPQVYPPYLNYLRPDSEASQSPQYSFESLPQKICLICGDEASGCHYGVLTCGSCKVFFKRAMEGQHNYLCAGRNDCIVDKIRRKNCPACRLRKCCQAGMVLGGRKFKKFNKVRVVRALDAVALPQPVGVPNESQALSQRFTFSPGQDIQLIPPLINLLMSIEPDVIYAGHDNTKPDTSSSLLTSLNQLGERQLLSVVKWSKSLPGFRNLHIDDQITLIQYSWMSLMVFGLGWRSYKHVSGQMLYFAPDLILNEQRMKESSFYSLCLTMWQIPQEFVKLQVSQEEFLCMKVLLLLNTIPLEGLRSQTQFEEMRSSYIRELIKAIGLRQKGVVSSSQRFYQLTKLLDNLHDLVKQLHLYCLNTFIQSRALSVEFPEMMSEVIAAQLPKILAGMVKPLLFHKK
Source text: as §1

[3] = system: IL-8 secretion in the human THP-1 monocyte cell line; test: inhibition of LPS-induced IL-8 secretion in THP-1 cells (ELISA); assay type: cell-based
Procedure: The compounds of the invention of the general formula (I) inhibit the secretion, induced by lipopolysaccharide (LPS), of the cytokine IL-8 in the human THP-1 monocyte cell line. The concentration of the cytokines was determined in the supernatant using a commercially available ELISA kit.

Row | IC50 [1] [nM] | IC50 [2] [nM] | IC50 ([3]; LPS, ELISA of supernatant, read-out: IC50(ILB) inhibition of LPS-induced IL-8 secretion) [nM] | Structure (SMILES) | efficiency with regard to [3H]-dexamethasone as standard ([3]; LPS-induced IL-8 secretion) [%]
1 | 36 | > 1000 |  | CC1(C)C[C@@](O)(C(F)(F)F)[C@H](NC(=O)c2ccc3occc3c2)c2ccc(F)c(O)c21 (relative stereo) [Example 3L, N-(cis-6-fluoro-2,5-dihydroxy-4,4-dimethyl-2-trifluoro-methyl-1,2,3,4-tetrahydronaphthalen-1-yl)benzofuran-5-carboxamide] | 
2 |  |  | 1000 | COc1c(F)ccc2c1C(C)(C)C[C@@](O)(C(F)(F)F)[C@@H]2NC(=O)Nc1ccc2ccccc2c1 [Example 3E] | 11
